In one assay the test system is PMN. Description: murine zymosan A-induced peritonitis, exudate PMN. In kind it is in vivo, mice. The procedure: (§1) The 7,14-dihydroxy-containing products were isolated from methyl formate fractions obtained from murine MΦs via RP-HPLC (Agilent 1100 series) using a Beckman C18 column (250 mm×10 mm×5 μm) and methanol/water (65/35; v/v) ramped to 85/15 (v/v) for 30 min. Their actions were assessed in murine zymosan A-induced peritonitis (19). Peritonitis was initiated by intraperitoneal (i.p.) administration of 1 mg zymosan A in 1 ml of sterile saline, and each compound was administered i.v. 5 min before zymosan. At 2 h, mice were sacrificed, and peritoneal exudates harvested (5 ml DPBS^−/− without calcium and magnesium), identified and enumerated by light microscopy and FACS. Resident MΦs were identified by FACS (8). To assess pro-resolving actions, peritoneal MΦs (24-well plate, 10^5 cells/well) from naïve mice were incubated with each compound (15 min, pH 7.45) followed by addition of FITC-labeled Zymosan A (30 min, 37° C.). Trypan blue was used to quench extracellular zymosan particles (1 min, 37° C.) followed by DPBS^+/+ (pH 7.45), and phagocytosis quantified using a Perkin-Elmer Victor^3.

Assay [1] concerns peritoneal MΦs. The experiment in a line: MΦ phagocytosis of FITC-labeled zymosan. The format is cell-based, mice. The note with it: for enhancement of MΦ phagocytosis of zymosan: 15 min compound, then FITC-labeled zymosan 30 min, 37° C. The procedure:
as §1

Assay [2] deals with peritoneal MΦs. The note with it: literature ref. 13; cited from earlier work.
In another assay the test system is lipoxygenase (LOX). The experiment in a line: LC/MS/MS lipidomics of peritonitis exudates with LOX inhibitor. The format is in vivo, mice. The note with it: exudates obtained with the LOX inhibitor, n=3. As for the experimental part:
In view of the actions of specialized chemical mediators in resolution (6, 7), 17-HDHA was monitored as a biomarker of activation and conversion of endogenous DHA, as well as employed targeted lipidomics to query whether other pathways were operative (see FIG. 1). During this course of peritonitis, PMN rapidly entered, reaching max within 12 h. In this self-resolving system (19), PMN declined and were lost from exudates, thus defining resolution (FIG. 1). Unbiased targeted mediator lipidomics employing LC/MS/MS-based analyses were carried out with these exudates. In addition to 17S-HDHA, a marker of resolvin and protectin biosynthesis (6), endogenous DHA was converted to 14S-hydroxydocosahexaenoic acid (14S-HDHA).

In the case of `CC/C=C\C/C=C\CC(O)C=CC=CC=CC(O)C/C=C\CCC(=O)O` (stereo not drawn) [MaR1, 7,14-dihydroxydocosa-4Z,8,10,12,16Z,19Z-hexaenoic acid], in the assay on PMN (i.v. before i.p. zymosan, dose response FIG. 3C), the “dose (as low as) that potently reduced infiltration of PMN into sites of inflammation” value is recorded as 0.2 ng/mouse. The “anti-inflammatory action regulating PMN entry into zymosan-induced peritonitis” value in the assay with PMN (nanogram quantities per mouse, FIG. 3A) is recorded as “stopping PMN infiltration”. Besides, the “enhancement of MΦ phagocytosis of zymosan” value (from here on “enhancement”) with peritoneal MΦs [1] (FIG. 3D) was “enhances phagocytosis”. For the same compound, the “potency compared to RvE1 and PD1” value in the assay on peritoneal MΦs [1] (FIG. 3, inset comparison at 1 nM) is on record as “comparable potency”.
On to `CC/C=C\C[C@H](O)\C=C/C=C/C=C/[C@H](O)C/C=C\C/C=C\CCC(=O)O` [PD1, 10R,17S-dihydroxydocosa-4Z,7Z,11E,13E,15Z,19Z-hexaenoic acid], for which the “concentration (as low as) enhancing MΦ phagocytosis” value with peritoneal MΦs [2] was 1 nM.
For the compound `CCCCC[C@H](O)/C=C/[C@H]1[C@H](O)CC(=O)[C@@H]1C/C=C\CCCC(=O)O` [PGE2, prostaglandin E2, reference compound], in the assay with peritoneal MΦs [1] (FIG. 3D), the “enhancement” value was “did not enhance phagocytosis”.
`CC[C@@H](O)/C=C/C=C\C[C@@H](O)/C=C/C=C/C=C\[C@@H](O)CCCC(=O)O` [RvE1, 5S,12R,18R-trihydroxyeicosa-6Z,8E,10E,14Z,16E-pentaenoic acid]: the “concentration (as low as) enhancing MΦ phagocytosis” value in the assay with peritoneal MΦs [2] is on record as 1 nM.
Consider `CC/C=C\C/C=C\C[C@H](O)/C=C/C=C\C=C\[C@@H](O)C/C=C\CCC(=O)O` [double dioxygenation product, 7S,14S-dihydroxydocosa-4Z,8E,10Z,12E,16Z,19Z-hexaenoic acid], for which the “PMN infiltration in zymosan-induced peritonitis” value with PMN (0.1 ng dose per mouse, leukocytes enumerated after 2 h, FIG. 3B) is reported as “reduced PMN infiltration”. Also, in the assay with PMN (0.1 ng/mouse each, FIG. 3B), the “potency on PMN infiltration compared with the MΦ isolated material” value is given as “less potent”. Besides, in the assay on peritoneal MΦs [1] (FIG. 3D), the “enhancement” value is listed as “active”. The “potency in phagocytosis compared with the new product isolated from MΦs” value with peritoneal MΦs [1] (direct comparison, FIG. 3D) was “less potent”.
With `O=c1ccc2cc(O)c(O)cc2o1` [esculetin], the “17S-HDHA and 14S-HDHA in peritonitis exudates” value in the assay with lipoxygenase (LOX) was “Neither product was identified”.

These data come from patent US10233168B2, “14-hydroxy-docosahexaenoic acid compounds” (The Brigham And Women's Hospital, Inc., priority 2008, dated 2019).
